What was measured:
[1] = method code SF, from DOI: 10.1021/jm061062o.s001, PMID: 17326614; settings: pH 7.4
[2] = method code SF, from DOI: 10.1016/j.bmc.2005.05.004, PMID: 15946850; settings: pH 7.4
[3] = method code G-GLC, from DOI: 10.1021/je00036a027
[4] = not given; remark: listed apart in the source
[5] = method code SF-RC, from DOI: 10.1002/ps.2780410303
[6] = method code SF-AS, from DOI: 10.1248/cpb.39.458, PMID: 1829027; settings: pH 7.0
[7] = not given; remark: listed apart in the source
[8] = not given; remark: listed apart in the source
[9] = method code SF-AS, from DOI: 10.1023/a:1016392123137, PMID: 24272811; settings: pH 9.0
[10] = not given; remark: listed apart in the source
[11] = not given; remark: listed apart in the source
[12] = not given; remark: listed apart in the source
[13] = method code SF-AS, from DOI: 10.1135/cccc19881862
[14] = not given; remark: listed apart in the source
[15] = from Wadhwa, L.; Chandiran, S.; Sharma, P. (2004). Alkyl esters of 6-methoxy-2-naphthylacetic acid as potential prodrugs - Synthesis, physicochemical properties, chemical stability and enzymatic …; settings: pH 7.4
[16] = not given; remark: listed apart in the source
[17] = method code SF-AS, from PMID: 5136171
[18] = not given; remark: listed apart in the source
[19] = not given; remark: listed apart in the source
[20] = not given; remark: listed apart in the source
[21] = method code SF-HPLC, from DOI: 10.1002/ps.2780310207
[22] = from Sparatore, F.; Grieco, C.; Silipo, C.; Vittoria, A. (1979). Use of regression analysis to correlate auxin activity with chemical physical and structural properties of benzotriazole derivatives. III. …; settings: pH 5.6
[23] = method code SF-GLC, from DOI: 10.1016/s0021-9673(01)83612-8; settings: pH 13.0

CS(=O)(=O)CCN(CCI)c1cc(C(N)=O)c([N+](=O)[O-])cc1[N+](=O)[O-]
logD [1]: 0.74

CC(O)c1cc(Cl)c(Nc2nc3ccncc3c3c(=O)[nH]ccc23)c(Cl)c1 (stereo unspecified)
logP: 1.2

N#Cc1c(-c2ccc(OCCCc3c[nH]cn3)cc2)no[n+]1[O-]
logD [2]: 2.99

Clc1cccc(Cl)c1-c1ccccc1
logP [3]: 4.93

CCOC1OC2OC3(C)CC(OC4OC(C(=O)O)C(O)C(O)C4O)C4C(C)CCC(C1C)C24OO3 (stereo unspecified)
logP [4]: 1.73

CS(=O)(=O)CCN(CCCl)c1cc(C(N)=O)c([N+](=O)[O-])cc1[N+](=O)[O-]
logD [1]: 0.42

CC(C)C1(C)N=C(c2ncc(CO)cc2C(=O)O)NC1=O (stereo unspecified)
logD ([5]; pH 2.5): -0.21

CS(=O)(=O)CCN(CCS(C)(=O)=O)c1cc(C(N)=O)c([N+](=O)[O-])cc1[N+](=O)[O-]
logD [1]: -0.7

CCCCC(=O)OC[C@H]1O[C@@H](n2cc(F)c(=O)[nH]c2=O)C[C@@H]1OC(=O)CCCC
logD [6]: 2.72

N#Cc1nonc1-c1ccc(OCCCc2c[nH]cn2)cc1
logD [2]: 3.04

O=S(=O)(Nc1ccccc1Cl)c1c(O)c(Cl)cc(Cl)c1Cl
logP [7]: 3.97

[O-][n+]1onc(-c2ccc(OCCCc3c[nH]cn3)cc2)c1CO
logD [2]: 1.83

OC1(c2ccc(I)cc2)c2ccccc2C2=NCCN21 (stereo unspecified)
logP [8]: 2.2

Clc1cc(Cl)c(-c2ccccc2)cc1Cl
logP [3]: 5.51

Nc1nc(-c2ccccn2)cc2ccccc12
logD [9]: 2.74

O=C(CCCCC1CCSS1)NCCN1CCOCC1 (stereo unspecified)
logP [10]: 1.8

Cc1cccc2cc(-c3ccccn3)nc(N)c12
logD [9]: 3.05

CC1(C)SC2C(NC(=O)CCOc3ccccc3)C(=O)N2C1C(=O)O (stereo unspecified)
logP [11]: 2.28

CCCCCC(=O)OCC1OC(n2cc(F)c(=O)[nH]c2=O)CC1OC(=O)CCCCC (stereo unspecified)
logD [6]: 4.25

CC1(C)SC2C(NC(O)c3ccccc3)C(=O)N2C1C(=O)O (stereo unspecified)
logP [11]: 1.4

OC1(c2cccc(F)c2)c2ccccc2C2=NCCN21 (stereo unspecified)
logP [8]: 1.28

CC1CN(CCNC(=O)OCCCCCC2CCSS2)CC(C)O1 (stereo unspecified)
logP [10]: 4.2

Cc1ncc2c(c1O)COC2c1ccc(Cl)cc1 (stereo unspecified)
logP [12]: 2.34

O=C(O)C(OCc1ccccc1)c1ccccc1 (stereo unspecified)
logD ([13]; pH 3.4): 2

O=C(O)CCC(=O)c1ccc(-c2ccc(-c3ccccc3)cc2)cc1
logD ([13]; pH 3.5): 3.2

CCOC(=O)OC[C@@H]1O[C@H](n2ccc(N)nc2=O)CS1
logP [14]: -0.25

CCOC(=O)Cc1ccc2cc(OC)ccc2c1
logD [15]: 3.04

CCCCNCc1ccc(C)cc1
logP [16]: 3.49

CCCOC(=O)Cc1ccc2cc(OC)ccc2c1
logD [15]: 4.14

CCOC(=O)c1cnc2cc(OCCOC)c(OC)cc2c1O
logP [17]: 1.36

O=S(=O)(Nc1ccc(O)cc1)c1cc(Cl)cc(Cl)c1Cl
logP [7]: 4.18

Cc1ccc(C(=O)NNC(=O)c2ccccc2)cc1
logP [18]: 1.88

CCCCCOC(=O)OC[C@@H]1O[C@H](n2ccc(N)nc2=O)CS1
logP [14]: 1.2

CCCc1cnc(C2=NC(C)(C(C)C)C(=O)N2)c(C(=O)O)c1 (stereo unspecified)
logD ([5]; pH 2.8): 1.27

COc1ccc2cc(CC(=O)OC(C)C)ccc2c1
logD [15]: 4

CCc1c(-c2ccccc2)ssc1=S
logP [19]: 4.31

CCC1(c2ccccc2)C(=O)NC(=O)N=C1OC(C)C (stereo unspecified)
logP [20]: 2.22

Clc1cc(Cl)c(-c2ccccc2)c(Cl)c1
logP [3]: 5.47

Clc1ccc(C2(Cn3cncn3)CC2)cc1
logP [21]: 2.21

Clc1c(Cl)c(Cl)c(-c2ccccc2)c(Cl)c1Cl
logP [3]: 6.3

OC1(c2ccc(F)cc2)c2ccccc2C2=NCCN21 (stereo unspecified)
logP [8]: 0.95

CCC1(c2ccccc2)C(=O)N=C(OC(C)C)NC1=O (stereo unspecified)
logP [20]: 1.79

CC(=O)OCC1OC(n2cc(F)c(=O)[nH]c2=O)CC1OC(C)=O (stereo unspecified)
logD [6]: -0.34

COc1ccc(COC(C(=O)O)c2ccccc2)cc1Cl (stereo unspecified)
logD ([13]; pH 3.4): 2.45

Clc1ccc(C2(Cn3cncn3)CCC2)cc1
logP [21]: 2.13

CCCCCCCC(=O)OCC1OC(n2cc(F)c(=O)[nH]c2=O)CC1OC(=O)CCCCCCC (stereo unspecified)
logD [6]: 6.05

CC1(C)S[C@@H]2[C@H](NC(=O)Cc3ccccc3)C(=O)N2[C@H]1C(=O)O
logP [11]: 1.83

OCCCCn1nc2ccccc2n1
logD [22]: 1.57

c1ccc(-c2cc3ccccc3cn2)nc1
logD [9]: 3.05

Fc1ccc(C2(Cn3cncn3)CCC2)cc1
logP [21]: 1.93

CN[C@H](C)[C@@H](OC)c1ccccc1 (relative stereo)
logD [23]: 1.87

CC(C)(C)c1ccc(C(O)CCCN2CCC(C(O)c3ccccc3)CC2)cc1 (stereo unspecified)
logP [12]: 4.06

OC1(c2ccc(Br)cc2)c2ccccc2C2=NCCN21 (stereo unspecified)
logP [8]: 1.9

O=C(NCCN1CCOCC1)OCCCCCC1CCSS1 (stereo unspecified)
logP [10]: 2.9

CCOC(=O)c1cnc2cc(OCc3ccccc3)c(OCCOC)cc2c1O
logP [17]: 1.95

CCCOC(=O)OC[C@@H]1O[C@H](n2ccc(N)nc2=O)CS1
logP [14]: 0.22

CC(C)(Cn1cncn1)c1ccc(F)cc1
logP [21]: 1.74

Cc1ccc(Cc2cnc(NCCCCc3ncc(Br)cc3C)[nH]c2=O)cn1
logP [12]: 3.19

OCCCCn1nnc2ccccc21
logD [22]: 1.03

O=S(=O)(Nc1cc(Cl)c(Cl)cc1Cl)c1c(O)c(Cl)cc(Cl)c1Cl
logP [7]: 4.36

O=C(CCCN1CCC(C(O)(c2ccccc2)c2ccccc2)CC1)c1ccccc1
logP [12]: 4.42

S=c1ssc2c1CCCCCCCCCC2
logP [19]: 5.8

CCC1(CC)C(=O)N=C(OC(C)C)NC1=O
logP [20]: 1.44

O=c1[nH]ccc2c(Nc3c(Cl)cc(C(O)C(F)F)cc3Cl)nc3ccncc3c12 (stereo unspecified)
logP: 1.46

CC(C)C1(C)N=C(c2ncc(S(C)(=O)=O)cc2C(=O)O)NC1=O (stereo unspecified)
logD ([5]; pH 2.0): -0.05

COc1ccc2cc(CC(=O)OCC(C)C)ccc2c1
logD [15]: 4.71

CCCCCOC(=O)NCCN1CCOCC1
logP [10]: 2.8

OCc1nonc1-c1ccc(OCCCc2c[nH]cn2)cc1
logD [2]: 1.96

OCCCCCCn1nnc2ccccc21
logD [22]: 1.71

CSc1cnc(C2=NC(C)(C(C)C)C(=O)N2)c(C(=O)O)c1 (stereo unspecified)
logD ([5]; pH 2.8): 0.75

O=C(NN(C(=O)c1ccc([N+](=O)[O-])cc1)c1ccccc1)c1ccc([N+](=O)[O-])cc1
logP [18]: 4.18

COc1ccc(C(=O)NNC(=O)c2ccccc2)cc1
logP [18]: 1.6

CCCCCCNCc1ccc(C)cc1
logP [16]: 4.96

O=c1[nH]ccc2c(Nc3c(F)cc(F)cc3Cl)nc3ccncc3c12
logP: 1.75

CS(=O)(=O)c1cc([N+](=O)[O-])c(C(N)=O)cc1N(CCBr)CCBr
logD [1]: 1.18

O=c1[nH]ccc2c(Nc3c(Cl)cc(C4=NNCC4)cc3Cl)nc3ccncc3c12
logP: 1.43

S=c1ssc(Cc2ccccc2)c1-c1ccccc1
logP [19]: 4.29

CCNCc1ccc(C)cc1
logP [16]: 2.38

CCCCCCCNCc1ccc(C)cc1
logP [16]: 5.12

NC1CCc2ccccc2C1 (stereo unspecified)
logD [23]: 2.08

CCC1(CC)C(=O)NC(=O)N(C(C)C)C1=O
logP [20]: 2.36

O=S(=O)(Nc1cc(Cl)c(Cl)cc1Cl)c1cc(Cl)cc(Cl)c1O
logP [7]: 4.32

Cc1cccc(-c2cc3ccccc3c(N)n2)n1
logD [9]: 3.18

CCOC(=O)c1cnc2cc(OCC(C)C)c(OCC(C)C)cc2c1O
logP [17]: 2.18

OCCCCCn1nc2ccccc2n1
logD [22]: 1.93

O=C(O)CCCC(=O)c1ccc(-c2ccc(-c3ccccc3)cc2)cc1
logD ([13]; pH 3.5): 3.35

CC1(C)C2Cc3ssc(=S)c3C1C2 (stereo unspecified)
logP [19]: 3.52

CCOC(=O)c1cnc2cc(OCCOC(C)C)c(OCC(C)C)cc2c1O
logP [17]: 2.17

CC(C)OC(=O)OC[C@@H]1O[C@H](n2ccc(N)nc2=O)CS1
logP [14]: 0.1

O=C(NNC(=O)c1ccc([N+](=O)[O-])cc1)c1ccc([N+](=O)[O-])cc1
logP [18]: 2.07

COc1cccc(OC)c1C(=O)N[C@@H]1C(=O)N2[C@@H]1SC(C)(C)[C@@H]2C(=O)O
logP [11]: 1.22

Reference: the SangsterLogP compilation
